What was measured:
Assay type in all cases: cell-based
[1] = biological target: T1, Brd2 (Homo sapiens, UniProt P25440); experiment: Concentration-dependent BET degradation, immunoblot, HEK293 cells; design: endogenous in cells; host or cells: HEK293; details: HEK293, Brd2, 6 h treatment, 1 nM-10 μM; for Dmax: read-out: Dmax (%) maximum degradation observed
Method: (§1) Cell culture. HeLa (CCL-2) and HEK293 (CRL-1573) cells were purchased from ATCC and cultured in DMEM medium (Gibco) supplemented with 10% FBS, 100 μg/mL penicillin/streptomycin and L-glutamine. Cells were grown at 37° C. and 5% CO2, and were kept no longer than 30 passages. All cell lines were routinely tested for mycoplasma contamination using MycoAlert kit from Lonza.
(§2) Immunoblotting. proteins were separated by SDS-PAGE on NuPage 4-12% Bis-Tris gels, followed by transfer to Amersham Protran 0.45 NC nitrocellulose membrane (GE Healthcare) using wet transfer. Membranes were blocked using 5% w/v milk in Tris-buffered saline (TBS) with 0.1% Tween-20. Blots were probed (overnight at 4° C.) using anti-Brd2 (Abcam ab139690, 1:2,000 dilution), anti-Brd3 (Abcam ab50818, 1:500 dilution), and anti-Brd4 (Abcam ab128874, 1:1,000 dilution) primary antibodies, as appropriate. The next day, blots were washed with TBST and incubated (1 hr at RT) with anti-Tubulin hFAB-rhodamine (BioRad, 12004166) primary antibody, and either anti-rabbit IRDye 800CW (Licor 1:10,000 dilution) or anti-mouse IRDye 800CW (Licor 1:10,000 dilution) secondary antibody. Blots were developed using a Bio-Rad ChemiDoc MP Imaging System, and band quantification was performed using Image Studio software (LiCor). Band intensities were normalized to the tubulin loading control and reported as % of the average 0.1% DMSO vehicle intensity. Degradation data was plotted and analysed using Prism (Graphpad, version 8).
(§3) HeLa (5×10^5) and HEK293 (1×10^6) cells were seeded in standard 6-well plates (2 mL medium) overnight before treatment with compounds at the desired concentration (1 nM-10 μM), with a final DMSO concentration of 0.1% v/v. After 6 h treatment time, cells were washed with DPBS (Gibco) and lysed using 85 μL RIPA buffer (Sigma-Aldrich) supplemented with cOmplete Mini EDTA-free protease inhibitor cocktail (Roche) and benzonase. Lysates were clarified by centrifugation (20,000g, 10 min, 4° C.) and the total protein content of the supernatant was quantified using a Bradford colorimetric assay. Samples were prepared using equal amounts of total protein and LDS sample buffer (Invitrogen.
(§4) Representative blots in FIG. 3 show depletion of Brd2, Brd3 and Brd4 protein levels following treatment with increasing concentrations of representative compounds. Band intensities were normalized to the β-tubulin loading control and reported as % of the average 0.1% DMSO vehicle intensity, with each point representing mean±SEM of two independent experiments (n=2). Degradation data was plotted and analysed using Prism (Graphpad, version 8)

[2] = biological target: T2, Brd3 (Homo sapiens, UniProt Q15059); experiment: as above; design: endogenous in cells; host or cells: HEK293; details: HEK293, Brd3, 6 h treatment, 1 nM-10 μM; for Dmax: read-out: Dmax (%) maximum degradation observed
Method: as §1, §2, §3, §4

[3] = biological target: T3, Brd4 (L) (Homo sapiens, UniProt O60885); experiment: as above; details: 6 h treatment, 1 nM-10 μM; for Dmax: read-out: Dmax (%) maximum degradation observed
T3 construct: endogenous in cells; host or cells: HEK293, HeLa
Method: as §1, §2, §3, §4

[4] = biological target: T4, Brd4 (S) (Homo sapiens, UniProt O60885); experiment: as above; details: 6 h treatment, 1 nM-10 μM; for Dmax: read-out: Dmax (%) maximum degradation observed
T4 construct: endogenous in cells; host or cells: HEK293, HeLa
Method: as §1, §2, §3, §4

[5] = biological target: T3, Brd4 (L); experiment: Time-dependent BET degradation, immunoblot, HEK293 cells; design: dose or concentration left out as unconfirmed; details: timecourse 0-8 h
Method: as §1, §2
as §3, with “(3×10^5)” for “(5×10^5)”, “(0.5×10^6)” for “(1×10^6)”, “1 μM concentration,” for “the desired concentration (1 nM-10 μM),”, “incubation for the desired time (0-8 h),” for “6 h treatment time,”, “(20,000 g,” for “(20,000g,”, “(Invitrogen).” for “(Invitrogen.”
as §4, with “FIG. 4” for “FIG. 3”, “following 1 μM” for “following”, “treatment at various time points” for “treatment”, “with” for “with increasing concentrations of”, “version 8).” for “version 8)”
(§5) T½ (h) is the time required to deplete 50% of the protein relative to DMSO

[6] = biological target: T4, Brd4 (S); experiment: as above; design: dose or concentration left out as unconfirmed; details: timecourse 0-8 h
Method: as §1, §2
as §3, with “(3×10^5)” for “(5×10^5)”, “(0.5×10^6)” for “(1×10^6)”, “1 μM concentration,” for “the desired concentration (1 nM-10 μM),”, “incubation for the desired time (0-8 h),” for “6 h treatment time,”, “(20,000 g,” for “(20,000g,”, “(Invitrogen).” for “(Invitrogen.”
as §4, with “FIG. 4” for “FIG. 3”, “following 1 μM” for “following”, “treatment at various time points” for “treatment”, “with” for “with increasing concentrations of”, “version 8).” for “version 8)”
as §5

[7] = biological target: T1, Brd2; experiment: Time-dependent BET degradation, immunoblot, HeLa cells; design: endogenous in cells; host or cells: HeLa; details: Brd2, 1 μM, timecourse 0-8 h
Method: as §1, §2
as §3, with “(3×10^5)” for “(5×10^5)”, “(0.5×10^6)” for “(1×10^6)”, “1 μM concentration,” for “the desired concentration (1 nM-10 μM),”, “incubation for the desired time (0-8 h),” for “6 h treatment time,”, “(20,000 g,” for “(20,000g,”, “(Invitrogen).” for “(Invitrogen.”
as §4, with “FIG. 4” for “FIG. 3”, “following 1 μM” for “following”, “treatment at various time points” for “treatment”, “with” for “with increasing concentrations of”, “version 8).” for “version 8)”
as §5

[8] = biological target: T2, Brd3; experiment: as above; design: endogenous in cells; host or cells: HeLa; details: Brd3, 1 μM, timecourse 0-8 h
Method: as §1, §2
as §3, with “(3×10^5)” for “(5×10^5)”, “(0.5×10^6)” for “(1×10^6)”, “1 μM concentration,” for “the desired concentration (1 nM-10 μM),”, “incubation for the desired time (0-8 h),” for “6 h treatment time,”, “(20,000 g,” for “(20,000g,”, “(Invitrogen).” for “(Invitrogen.”
as §4, with “FIG. 4” for “FIG. 3”, “following 1 μM” for “following”, “treatment at various time points” for “treatment”, “with” for “with increasing concentrations of”, “version 8).” for “version 8)”
as §5

[9] = biological target: T3, Brd4 (L); experiment: Concentration-dependent BET degradation, immunoblot, HeLa cells; details: 6 h treatment, 1 nM-10 μM; for Dmax: read-out: Dmax (%) maximum degradation observed
Method: as §1, §2, §3, §4

[10] = biological target: T4, Brd4 (S); experiment: as above; details: 6 h treatment, 1 nM-10 μM; for Dmax: read-out: Dmax (%) maximum degradation observed
Method: as §1, §2, §3, §4

T1 sequence (P25440 whole entry): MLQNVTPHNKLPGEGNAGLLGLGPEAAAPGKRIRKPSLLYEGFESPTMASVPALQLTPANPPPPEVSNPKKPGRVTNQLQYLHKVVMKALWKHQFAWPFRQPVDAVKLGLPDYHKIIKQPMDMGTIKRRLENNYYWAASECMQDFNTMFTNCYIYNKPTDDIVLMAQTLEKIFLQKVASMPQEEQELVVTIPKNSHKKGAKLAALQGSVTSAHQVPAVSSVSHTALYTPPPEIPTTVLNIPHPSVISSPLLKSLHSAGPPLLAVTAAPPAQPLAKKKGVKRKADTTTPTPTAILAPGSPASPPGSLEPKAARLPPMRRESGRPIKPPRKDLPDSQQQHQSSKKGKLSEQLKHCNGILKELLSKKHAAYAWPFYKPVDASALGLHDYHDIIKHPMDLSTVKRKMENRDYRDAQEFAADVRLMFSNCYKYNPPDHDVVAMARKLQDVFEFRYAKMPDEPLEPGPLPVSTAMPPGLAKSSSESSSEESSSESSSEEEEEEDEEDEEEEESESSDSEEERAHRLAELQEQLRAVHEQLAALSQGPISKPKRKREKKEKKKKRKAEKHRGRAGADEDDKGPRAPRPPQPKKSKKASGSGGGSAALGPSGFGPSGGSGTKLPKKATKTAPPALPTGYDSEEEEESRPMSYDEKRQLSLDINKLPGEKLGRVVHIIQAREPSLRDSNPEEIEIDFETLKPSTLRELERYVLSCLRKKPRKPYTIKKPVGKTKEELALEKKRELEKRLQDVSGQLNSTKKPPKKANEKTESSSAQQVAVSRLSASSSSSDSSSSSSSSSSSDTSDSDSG
T2 sequence (Q15059 whole entry): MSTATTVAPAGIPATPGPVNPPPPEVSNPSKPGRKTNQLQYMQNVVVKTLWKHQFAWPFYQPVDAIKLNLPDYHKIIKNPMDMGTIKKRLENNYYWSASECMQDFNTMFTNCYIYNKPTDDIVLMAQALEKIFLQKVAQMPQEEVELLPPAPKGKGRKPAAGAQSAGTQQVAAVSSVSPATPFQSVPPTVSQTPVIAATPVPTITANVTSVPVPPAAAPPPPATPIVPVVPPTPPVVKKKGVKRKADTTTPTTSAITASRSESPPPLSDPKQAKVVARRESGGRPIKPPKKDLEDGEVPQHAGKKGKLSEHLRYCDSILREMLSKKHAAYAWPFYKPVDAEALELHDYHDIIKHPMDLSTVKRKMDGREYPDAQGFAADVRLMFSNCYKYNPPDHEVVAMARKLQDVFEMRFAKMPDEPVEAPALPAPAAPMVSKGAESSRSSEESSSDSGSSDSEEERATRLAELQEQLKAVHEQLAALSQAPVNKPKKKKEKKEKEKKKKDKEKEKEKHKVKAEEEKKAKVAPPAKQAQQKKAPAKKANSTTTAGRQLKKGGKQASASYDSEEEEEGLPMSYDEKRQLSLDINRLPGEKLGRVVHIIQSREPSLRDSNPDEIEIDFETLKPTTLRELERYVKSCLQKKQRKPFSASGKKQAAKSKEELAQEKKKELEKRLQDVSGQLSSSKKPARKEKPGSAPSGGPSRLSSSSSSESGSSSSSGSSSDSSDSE

## CCCC(NC(=O)/C(C#N)=C/c1nccs1)c1ccc(OCCOCCOCCOCCOCCOCCOCCNC(=O)c2ccc(-c3ccc4c(c3)[C@H](Nc3ccc(Cl)cc3)C[C@H](C)N4C(C)=O)cc2)cc1 (stereo partly drawn) [Example 05IB9]
[1]
  DC50: ≤ 0.05 µM
  Dmax: 51 to 70%
[2]
  DC50: ≤ 0.05 µM
  Dmax: 51 to 70%
[3]
  DC50: ≤ 0.05 µM
  Dmax: ≥ 71%
[4]
  DC50: ≤ 0.05 µM
  Dmax: ≥ 71%
[5]
  Dmax: 96%
[6]
  Dmax: 96%
[7]
  Dmax at 1 µM: 76%
[8]
  Dmax at 1 µM: 80%
[9]
  DC50: ≤ 0.05 µM
  Dmax: ≥ 71%
[10]
  DC50: ≤ 0.05 µM
  Dmax: ≥ 71%

## CCCC(NC(=O)/C(C#N)=C/c1cccc(Br)n1)c1ccc(OCC=NOCC(=O)NCCOCCOCCOCCOCCOCCNC(=O)c2ccc3c(c2)[C@H](Nc2ccc(Cl)cc2)C[C@H](C)N3C(C)=O)cc1 (stereo partly drawn) [Example 05IB3]
[1]
  DC50: 0.051 to 0.5 µM
  Dmax: ≥ 71%
[2]
  DC50: ≤ 0.05 µM
  Dmax: ≥ 71%
[3]
  DC50: ≤ 0.05 µM
  Dmax: ≥ 71%
[4]
  DC50: ≤ 0.05 µM
  Dmax: ≥ 71%
[5]
  Dmax: 96%
[6]
  Dmax: 100%
[7]
  Dmax at 1 µM: 54%
[8]
  Dmax at 1 µM: 100%
[9]
  DC50: 0.051 to 0.5 µM
  Dmax: ≥ 71%
[10]
  DC50: ≤ 0.05 µM
  Dmax: ≥ 71%

## CCCC(NC(=O)/C(C#N)=C/c1cccc(Br)n1)c1ccc(OCCOCCOCCOCCOCCOCCOCCNC(=O)c2ccc(-c3ccc4c(c3)[C@H](Nc3ccc(Cl)cc3)C[C@H](C)N4C(C)=O)cc2)cc1 (stereo partly drawn) [Example 05IB6]
[1]
  DC50: 0.051 to 0.5 µM
  Dmax: 26 to 50%
[2]
  DC50: 0.051 to 0.5 µM
  Dmax: 51 to 70%
[3]
  DC50: ≤ 0.05 µM
  Dmax: ≥ 71%
[4]
  DC50: ≤ 0.05 µM
  Dmax: ≥ 71%
[5]
  Dmax: 100%
[6]
  Dmax: 97%
[7]
  Dmax at 1 µM: 79%
[8]
  Dmax at 1 µM: 90%
[9]
  DC50: 0.051 to 0.5 µM
  Dmax: ≥ 71%
[10]
  DC50: ≤ 0.05 µM
  Dmax: ≥ 71%

From patent US20210283139A1, “BIFUNCTIONAL MOLECULES FOR TARGETING UCHL5” (AMPHISTA THERAPEUTICS LTD, priority 2018, published 2021)
